Measurements from patent US20240245711A1, “A 19-NOR C3,3-DISUBSTITUTED C21-N-PYRAZOLYL STEROID FOR THE TREATMENT OF MAJOR DEPRESSIVE DISORDER” (Sage Therapeutics, Inc., priority 2021, published 2024).
“Also recorded” adds a separate entry of the source.

Test system: adult subjects with Major Depressive Disorder
Assay: Phase 3 open-label 1-year study: safety and tolerability (TEAEs, SAEs, C-SSRS)
Assay type: in vivo, human
Experimental: Primary Objective: To determine the safety and tolerability of initial treatment and re-treatment(s) with Compound (1) in adults with Major Depressive Disorder (MDD) currently experiencing a major depressive episode (MDE) over a 1-year period.
Study Population: Subjects were 18-75 years old, diagnosed with major depressive disorder (MDD) with a MADRS total score of ≥28 and a HAM-D total score of ≥20 at Screening and Day 1 (prior to dosing).
Treatment Groups: The 30 mg and 50 mg dose groups were separated by time of enrollment. The study is comprised of two cohorts: one with Compound (1) 30 mg as a starting dose (30 mg Cohort: n=725), an initial cohort with Compound (1) 50 mg as a starting dose (50 mg Cohort: n=199). A patient receiving Compound (1) 30 mg could be dose reduced to 20 mg and patients receiving Compound (1) 50 mg could be dose reduced to 40 mg (based on tolerability). In all cohorts, Compound (1) is self-administered by patients as an oral therapy once nightly with food for 14 days.
The study has a Screening Period of up to 28 days, a 14-day Treatment Period, and up to 1 year of Follow-up. FIG. 1 is an overview of the study.
Antidepressants were permitted provided subjects were on a stable dose for at least 60 days prior to Day 1 and agreed to continue on the stable dose through the follow-up period (Day 42). Initiation of new antidepressants or any other medications that may potentially have an impact on efficacy or safety endpoints were not allowed between screening and completion of the Day 42 assessments.
Eligible subjects were given Compound (1)—to be taken at home in the evening with meal.
Subjects who continued in the Observation Period were monitored remotely via PHQ-9 assessment every two weeks. If PHQ-9 score was >=10 at any assessment, PHQ-9 assessment was switch to every week until the score came down below 10 or the subject was dosed with Compound (1) in a subsequent cycle, whichever was earlier. A subject was to come back to the site for HAM-D assessment within a week of PHQ-9 score >=10; if the HAM-D total score >=20 and at least 56 days had elapsed since the last dose of Compound (1), another dosing cycle of Compound (1) were to start. If any of these criteria were not met, the subject couldn't be treated with Compound (1) at that time. Without the trigger of PHQ-9>=10 the subject was to have a clinic visit every 8 weeks. A subject could have at most 5 cycles of treatment within a year. FIG. 2 is a depiction of the eligibility criteria of the study.
Dose reduction from 30 mg to 20 mg or 50 mg to 40 mg was allowed in any treatment cycle if the safety and/or tolerability of the subject so warrants. […] Subjects who dose reduced from 30 mg to 20 mg still started with 30 mg in the next treatment cycle.
The cohorts pertaining to the different doses that the subjects received were defined as following: • 50 mg cohort: This cohort includes subjects who have initiated treatment with 50 mg and received re-treatment with 50 mg only. • 30 mg cohort: This cohort includes subjects who have initiated treatment with 30 mg regardless of the dose they have received in re-treatments. • Low dose cohort: This cohort includes subjects who have initiated treatment with 30 mg and received re-treatment with 30 mg only. • Dose switch cohort: This cohort includes subjects who have received initial treatment with 30 mg and at least one subsequent re-treatment with 50 mg. • Study Period X: starts on the date of the first dose of Compound (1) in cycle X and goes up to one day prior to the first dose of the next cycle. […]

[1] = 50 mg Cohort, one-year follow-up (Example 4)
[2] = Low Dose Cohort, ATD use at period-specific baseline No, Study Period 1
[3] = Low Dose Cohort, ATD use at period-specific baseline No, Study Period 2

Structure (SMILES): C[C@@]1(O)CC[C@H]2[C@H](CC[C@@H]3[C@@H]2CC[C@]2(C)[C@@H](C(=O)Cn4cc(C#N)cn4)CC[C@@H]32)C1 [Compound (1), 1-(2-((3R,5R,8R,9R,10S,13S,14S,17S)-3-hydroxy-3,13-dimethylhexadecahydro-1H-cyclopenta[a]phenanthren-17-yl)-2-oxoethyl)-1H-pyrazole-4-carbonitrile]
- Subjects with at least one TEAE leading to study drug discontinuation (30 mg Cohort (N = 725)): 19 (2.6%)
- Subjects with at least one TEAE leading to study withdrawal (30 mg Cohort (N = 725)): 32 (4.4%)
- Subjects with at least one serious TEAE (30 mg Cohort (N = 725)): 20 (2.8%)
- TEAE severity Mild, subjects n (%) (30 mg Cohort (N = 725)): 200 (27.6%)
- TEAE severity Moderate, subjects n (%) (30 mg Cohort (N = 725)): 248 (34.2%)
- TEAE severity Severe / subjects with at least one severe TEAE, n (%) (30 mg Cohort (N = 725)): 45 (6.2%)
- Events of loss of consciousness (30 mg and 50 mg, as of the cutoff date): No events of loss of consciousness
- Possibly or probably related SAEs (50 mg Cohort): Confusional state; also recorded: Asthenia; also recorded: Delirium
- Subjects with at least one serious TEAE (50 mg Cohort (N = 199)): 7 (3.5%)
- TEAE Arthralgia, subjects n (%) (50 mg Cohort (N = 199)): 1 (0.5%)
- TEAE Back Pain, subjects n (%) (50 mg Cohort (N = 199)): 0%
- TEAE Diarrhea, subjects n (%) (50 mg Cohort (N = 199)): 4 (2.0%)
- TEAE Dizziness, subjects n (%) (50 mg Cohort (N = 199)): 30 (15.1%)
- TEAE Dry Mouth, subjects n (%) (50 mg Cohort (N = 199)): 7 (3.5%)
- TEAE Fatigue, subjects n (%) (50 mg Cohort (N = 199)): 5 (2.5%)
- TEAE Headache, subjects n (%) (50 mg Cohort (N = 199)): 20 (10.1%)
- TEAE Insomnia, subjects n (%) (50 mg Cohort (N = 199)): 10 (5.0%)
- TEAE Nausea, subjects n (%) (50 mg Cohort (N = 199)): 11 (5.5%)
- TEAE Sedation, subjects n (%) (50 mg Cohort (N = 199)): 18 (9.0%)
- TEAE Somnolence, subjects n (%) (50 mg Cohort (N = 199)): 29 (14.6%)
- TEAE Upper Respiratory Tract Infection, subjects n (%) (50 mg Cohort (N = 199)): 1 (0.5%)
- TEAE severity Mild, subjects n (%) (50 mg Cohort (N = 199)): 45 (22.6%)
- TEAE severity Moderate, subjects n (%) (50 mg Cohort (N = 199)): 65 (32.7%)
- TEAE severity Severe / subjects with at least one severe TEAE, n (%) (50 mg Cohort (N = 199)): 15 (7.5%)
- Withdrawn in Treatment Cycle 1: Adverse event, n (%) (50 mg Cohort (n = 199)): 11 (5.5%)
- Maximum severity of TEAEs reported by the majority of subjects [1]: mild to moderate
- TEAE Dizziness, subjects n (%) [1]: 15.1%
- TEAE Headache, subjects n (%) [1]: 12.7%
- TEAE Insomnia, subjects n (%) [1]: 7.0%
- TEAE Nausea, subjects n (%) [1]: 6.5%
- TEAE Sedation, subjects n (%) [1]: 10.1%
- TEAE Somnolence, subjects n (%) [1]: 16.1%
- TEAE tremor, subjects (n; %) [1]: 5.5%
- Subjects reporting TEAEs leading to discontinuation of study drug (50 mg Cohort, one-year follow-up (Example 4), 13/199): 6.5%
- Subjects reporting TEAEs leading to withdrawal from study (50 mg Cohort, one-year follow-up (Example 4), 16/199): 8.0%
- Subjects reporting at least one adverse event (50 mg Cohort, one-year follow-up (Example 4), 137 of 199): 68.8%
- Subjects reporting TEAEs leading to dose reduction, n/N (50 mg cohort, Cycle 2): 2/26
- Proportion of subjects reporting TEAEs (50 mg cohort, as printed in b423 (46/76)): 60.5%
- Subjects reporting TEAEs leading to dose reduction (50 mg cohort, overall (34/199)): 17.1%
- Tolerability (Compound (1) 50 mg, 50 mg Cohort followed up to one year (Example 4)): generally well-tolerated
- Subjects with at least one serious TEAE (Dose Switch Cohort (N = 80)): 1 (1.3%)
- TEAE Arthralgia, subjects n (%) (Dose Switch Cohort (N = 80)): 5 (6.3%)
- TEAE Back Pain, subjects n (%) (Dose Switch Cohort (N = 80)): 5 (6.3%)
- TEAE Diarrhea, subjects n (%) (Dose Switch Cohort (N = 80)): 11 (13.8%)
- TEAE Dizziness, subjects n (%) (Dose Switch Cohort (N = 80)): 7 (8.8%)
- TEAE Dry Mouth, subjects n (%) (Dose Switch Cohort (N = 80)): 3 (3.8%)
- TEAE Fatigue, subjects n (%) (Dose Switch Cohort (N = 80)): 8 (10.0%)
- TEAE Headache, subjects n (%) (Dose Switch Cohort (N = 80)): 13 (16.3%)
- TEAE Insomnia, subjects n (%) (Dose Switch Cohort (N = 80)): 5 (6.3%)
- TEAE Nausea, subjects n (%) (Dose Switch Cohort (N = 80)): 3 (3.8%)
- TEAE Sedation, subjects n (%) (Dose Switch Cohort (N = 80)): 11 (13.8%)
- TEAE Somnolence, subjects n (%) (Dose Switch Cohort (N = 80)): 10 (12.5%)
- TEAE Upper Respiratory Tract Infection, subjects n (%) (Dose Switch Cohort (N = 80)): 5 (6.3%)
- TEAE severity Mild, subjects n (%) (Dose Switch Cohort (N = 80)): 13 (16.3%)
- TEAE severity Moderate, subjects n (%) (Dose Switch Cohort (N = 80)): 36 (45.0%)
- TEAE severity Severe / subjects with at least one severe TEAE, n (%) (Dose Switch Cohort (N = 80)): 8 (10.0%)
- Proportion of subjects reporting TEAEs (Dose Switch cohort, as printed in b423 (37/48)): 77.1%
- Subjects reporting TEAEs leading to dose reduction (Dose switch cohort, Cycle 1 while on 30 mg): 2.5%
- Subjects reporting TEAEs leading to dose reduction (Dose switch cohort, Cycle 2 while on 30 mg): 2.5%
- Subjects reporting TEAEs leading to dose reduction (Dose switch cohort, Cycle 3 while switched to 50 mg): 4.2%
- Subjects reporting TEAEs leading to dose reduction (Dose switch cohort, Cycle 4 while switched to 50 mg): 3.8%
- Subjects reporting TEAEs leading to dose reduction (Dose switch cohort, Cycle 5 while switched to 50 mg): 17.4%
- Subjects reporting TEAEs leading to dose reduction (Dose switch cohort, overall (12/80)): 15.0%
- Possibly or probably related SAEs (Low Dose Cohort): Suicidal ideation
- Subjects with at least one serious TEAE (Low Dose Cohort (N = 645)): 19 (2.9%)
- TEAE Arthralgia, subjects n (%) (Low Dose Cohort (N = 645)): 14 (2.2%)
- TEAE Back Pain, subjects n (%) (Low Dose Cohort (N = 645)): 18 (2.8%)
- TEAE Diarrhea, subjects n (%) (Low Dose Cohort (N = 645)): 43 (6.7%)
- TEAE Dizziness, subjects n (%) (Low Dose Cohort (N = 645)): 47 (7.3%)
- TEAE Dry Mouth, subjects n (%) (Low Dose Cohort (N = 645)): 40 (6.2%)
- TEAE Fatigue, subjects n (%) (Low Dose Cohort (N = 645)): 27 (4.2%)
- TEAE Headache, subjects n (%) (Low Dose Cohort (N = 645)): 90 (14.0%)
- TEAE Insomnia, subjects n (%) (Low Dose Cohort (N = 645)): 31 (4.8%)
- TEAE Nausea, subjects n (%) (Low Dose Cohort (N = 645)): 25 (3.9%)
- TEAE Sedation, subjects n (%) (Low Dose Cohort (N = 645)): 29 (4.5%)
- TEAE Somnolence, subjects n (%) (Low Dose Cohort (N = 645)): 76 (11.8%)
- TEAE Upper Respiratory Tract Infection, subjects n (%) (Low Dose Cohort (N = 645)): 52 (8.1%)
- TEAE severity Mild, subjects n (%) (Low Dose Cohort (N = 645)): 187 (29.0%)
- TEAE severity Moderate, subjects n (%) (Low Dose Cohort (N = 645)): 212 (32.9%)
- TEAE severity Severe / subjects with at least one severe TEAE, n (%) (Low Dose Cohort (N = 645)): 37 (5.7%)
- Withdrawn in Treatment Cycle 1: Adverse event, n (%) (Low Dose Cohort (n = 645)): 15 (2.3%)
- Subjects with a TEAE leading to study drug discontinuation [2]: (3.2%)
- Subjects with a Treatment cycle period AE leading to study withdrawal [2]: (3.7%)
- Subjects with at least one TEAE [2]: (67.5%)
- Subjects with at least one Treatment cycle period TEAE [2]: (53.6%)
- Subjects with at least one Treatment cycle period serious TEAE [2]: (1.3%)
- Subjects with at least one Treatment cycle period severe TEAE [2]: (2.6%)
- Subjects with at least one Treatment period AE [2]: (51.2%)
- Subjects with a TEAE leading to study drug discontinuation [3]: 1 (0.8%)
- Subjects with a Treatment cycle period AE leading to study withdrawal [3]: 3 (2.5%)
- Subjects with at least one TEAE [3]: 75 (63.6%)
- Subjects with at least one Treatment cycle period TEAE [3]: 58 (49.2%)
- Subjects with at least one Treatment cycle period serious TEAE [3]: 0%
- Subjects with at least one Treatment cycle period severe TEAE [3]: 2 (1.7%)
